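In this assay, cells in 96-well plates receive the compound at five concentrations for 48 hours. Endpoints are linearly interpolated between the surrounding concentrations. At the GI50, growth is halved.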 Active and inactive are the calls of the source. Rule as the data show it: active = GI50 up to about 1.1 µM and inactive = higher.
Key:
Test in all cases: NCI-60 cell line screen, 48 h
786-0 = tested on: 786-0
A498 = tested on: A498
A549 = tested on: A549
ACHN = tested on: ACHN
BT-549 = tested on: BT-549
CAKI-1 = tested on: CAKI-1
CCRF-CEM = tested on: CCRF-CEM
COLO 205 = tested on: COLO 205
DU-145 = tested on: DU-145
EKVX = tested on: EKVX
HCC 2998 = tested on: HCC 2998
HCT-116 = tested on: HCT-116
HCT-15 = tested on: HCT-15
HL-60 = tested on: HL-60
HOP-62 = tested on: HOP-62
HOP-92 = tested on: HOP-92
HT-29 = tested on: HT-29
Hs-578T = tested on: Hs-578T
IGROV-1 = tested on: IGROV-1
K562 = tested on: K562
KM12 = tested on: KM12
LOX IMVI = tested on: LOX IMVI
M14 = tested on: M14
MCF7 = tested on: MCF7
MDA-MB-231 = tested on: MDA-MB-231
MDA-MB-435 = tested on: MDA-MB-435
MDA-N = tested on: MDA-N
MOLT-4 = tested on: MOLT-4
NCI-H226 = tested on: NCI-H226
NCI-H23 = tested on: NCI-H23
NCI-H460 = tested on: NCI-H460
NCI-H522 = tested on: NCI-H522
OVCAR-3 = tested on: OVCAR-3
OVCAR-4 = tested on: OVCAR-4
OVCAR-5 = tested on: OVCAR-5
PC-3 = tested on: PC-3
RPMI-8226 = tested on: RPMI-8226
RXF 393 = tested on: RXF 393
SF-268 = tested on: SF-268
SF-295 = tested on: SF-295
SF-539 = tested on: SF-539
SK-MEL-28 = tested on: SK-MEL-28
SK-MEL-2 = tested on: SK-MEL-2
SK-MEL-5 = tested on: SK-MEL-5
SK-OV-3 = tested on: SK-OV-3
SN12C = tested on: SN12C
SNB-19 = tested on: SNB-19
SNB-75 = tested on: SNB-75
SR = tested on: SR
SW-620 = tested on: SW-620
T47D = tested on: T47D
TK-10 = tested on: TK-10
U-251 = tested on: U-251
UACC-257 = tested on: UACC-257
UACC-62 = tested on: UACC-62
UO-31 = tested on: UO-31
Malme-3M = tested on: Malme-3M
NCI/ADR-RES = tested on: NCI/ADR-RES
OVCAR-8 = tested on: OVCAR-8

CCOC(=O)c1cc2c(C(=O)c3ccc([N+](=O)[O-])cc3)c(C(C)=O)ccc2[nH]1
GI50 (786-0): 7.36 µM (inactive) | GI50 (A498): 50.5 µM (inactive) | GI50 (A549): 39.4 µM (inactive) | GI50 (ACHN): 28.7 µM (inactive) | GI50 (BT-549): 38.5 µM (inactive) | GI50 (CAKI-1): 18.3 µM (inactive) | GI50 (CCRF-CEM): > 100 µM (inactive) | GI50 (COLO 205): > 100 µM (inactive) | GI50 (DU-145): 32.7 µM (inactive) | GI50 (EKVX): > 100 µM (inactive) | GI50 (HCC 2998): > 100 µM (inactive) | GI50 (HCT-116): 45.6 µM (inactive) | GI50 (HCT-15): 50 µM | GI50 (HL-60): > 100 µM (inactive) | GI50 (HOP-62): 4.43 µM (inactive) | GI50 (HOP-92): 13.2 µM (inactive) | GI50 (HT-29): > 100 µM (inactive) | GI50 (Hs-578T): 9.84 µM (inactive) | GI50 (IGROV-1): 26.9 µM (inactive) | GI50 (K562): 26.7 µM (inactive) | GI50 (KM12): > 100 µM (inactive) | GI50 (LOX IMVI): 99.8 µM (inactive) | GI50 (M14): > 100 µM (inactive) | GI50 (MCF7): > 100 µM (inactive) | GI50 (MDA-MB-231): 16.9 µM (inactive) | GI50 (MDA-MB-435): 7.66 µM (inactive) | GI50 (MDA-N): 11.8 µM (inactive) | GI50 (MOLT-4): > 100 µM (inactive) | GI50 (NCI-H226): 51.4 µM (inactive) | GI50 (NCI-H23): 50.2 µM (inactive) | GI50 (NCI-H460): 82.6 µM (inactive) | GI50 (NCI-H522): 8.2 µM (inactive) | GI50 (OVCAR-3): > 100 µM (inactive) | GI50 (OVCAR-4): 5.52 µM (inactive) | GI50 (OVCAR-5): > 100 µM (inactive) | GI50 (PC-3): > 100 µM (inactive) | GI50 (RPMI-8226): > 100 µM (inactive) | GI50 (RXF 393): 15.2 µM (inactive) | GI50 (SF-268): 8.3 µM (inactive) | GI50 (SF-295): 23.6 µM (inactive) | GI50 (SF-539): 17.8 µM (inactive) | GI50 (SK-MEL-28): > 100 µM (inactive) | GI50 (SK-MEL-2): 55.8 µM (inactive) | GI50 (SK-MEL-5): 16.6 µM (inactive) | GI50 (SK-OV-3): 9.06 µM (inactive) | GI50 (SN12C): 72.8 µM (inactive) | GI50 (SNB-19): 22.1 µM (inactive) | GI50 (SNB-75): 11.6 µM (inactive) | GI50 (SR): > 100 µM (inactive) | GI50 (SW-620): > 100 µM (inactive) | GI50 (T47D): 29.9 µM (inactive) | GI50 (TK-10): 22.2 µM (inactive) | GI50 (U-251): 9.51 µM (inactive) | GI50 (UACC-257): > 100 µM (inactive) | GI50 (UACC-62): > 100 µM (inactive) | GI50 (UO-31): > 100 µM (inactive)

CN1C2CCC1CC(CCOC(c1ccc(F)cc1)c1ccc(F)cc1)C2 (centres undefined)
GI50 (786-0): 15.9 µM (inactive) | GI50 (A498): 17.8 µM (inactive) | GI50 (A549): 19.4 µM (inactive) | GI50 (ACHN): 17.1 µM (inactive) | GI50 (BT-549): 16.9 µM (inactive) | GI50 (CAKI-1): 16.3 µM (inactive) | GI50 (CCRF-CEM): 18.4 µM (inactive) | GI50 (COLO 205): 11.7 µM (inactive) | GI50 (DU-145): 15.7 µM (inactive) | GI50 (EKVX): 13.9 µM (inactive) | GI50 (HCT-116): 12.7 µM (inactive) | GI50 (HCT-15): 16.9 µM | GI50 (HL-60): 16.1 µM (inactive) | GI50 (HOP-62): 16 µM (inactive) | GI50 (HOP-92): 15.7 µM (inactive) | GI50 (HT-29): 6.73 µM (inactive) | GI50 (Hs-578T): 17.8 µM (inactive) | GI50 (IGROV-1): 17.3 µM (inactive) | GI50 (K562): 12.4 µM (inactive) | GI50 (KM12): 14.8 µM (inactive) | GI50 (LOX IMVI): 16.6 µM (inactive) | GI50 (M14): 16.4 µM (inactive) | GI50 (MDA-MB-231): 16.2 µM (inactive) | GI50 (MDA-MB-435): 12.4 µM (inactive) | GI50 (MDA-N): 14.5 µM (inactive) | GI50 (MOLT-4): 11.9 µM (inactive) | GI50 (Malme-3M): 15.1 µM (inactive) | GI50 (NCI-H226): 15.3 µM (inactive) | GI50 (NCI-H23): 19.5 µM (inactive) | GI50 (NCI-H460): 17.5 µM (inactive) | GI50 (NCI-H522): 17.1 µM (inactive) | GI50 (NCI/ADR-RES): 17.5 µM (inactive) | GI50 (OVCAR-3): 16 µM (inactive) | GI50 (OVCAR-4): 17.4 µM (inactive) | GI50 (OVCAR-5): 15.9 µM (inactive) | GI50 (OVCAR-8): 17.3 µM (inactive) | GI50 (PC-3): 15.5 µM (inactive) | GI50 (RPMI-8226): 18.6 µM (inactive) | GI50 (RXF 393): 10.4 µM (inactive) | GI50 (SF-268): 15.8 µM (inactive) | GI50 (SF-295): 16.9 µM (inactive) | GI50 (SF-539): 15.9 µM (inactive) | GI50 (SK-MEL-28): 16 µM (inactive) | GI50 (SK-MEL-2): 16.9 µM (inactive) | GI50 (SK-MEL-5): 9.23 µM (inactive) | GI50 (SK-OV-3): 16.6 µM (inactive) | GI50 (SN12C): 18.4 µM (inactive) | GI50 (SNB-19): 20.7 µM (inactive) | GI50 (SNB-75): 14.3 µM (inactive) | GI50 (SR): 14.8 µM (inactive) | GI50 (SW-620): 19.4 µM (inactive) | GI50 (T47D): 18.5 µM (inactive) | GI50 (TK-10): 15.3 µM (inactive) | GI50 (U-251): 14.9 µM (inactive) | GI50 (UACC-257): 17.1 µM (inactive) | GI50 (UO-31): 14.6 µM (inactive)

CC1C(c2ccccc2O)c2cc3c(cc2OC1N1CCOCC1)OCO3 (centres undefined)
GI50 (786-0): 34.7 µM (inactive) | GI50 (A498): 19.2 µM (inactive) | GI50 (A549): 25.6 µM (inactive) | GI50 (ACHN): 29.4 µM (inactive) | GI50 (BT-549): 27.4 µM (inactive) | GI50 (CAKI-1): 25.1 µM (inactive) | GI50 (CCRF-CEM): 20.7 µM (inactive) | GI50 (COLO 205): 21.2 µM (inactive) | GI50 (DU-145): 38.5 µM (inactive) | GI50 (EKVX): 34.3 µM (inactive) | GI50 (HCC 2998): 25 µM (inactive) | GI50 (HCT-116): 26.4 µM (inactive) | GI50 (HCT-15): 31 µM | GI50 (HL-60): 20 µM (inactive) | GI50 (HOP-62): 18.5 µM (inactive) | GI50 (HOP-92): 27 µM (inactive) | GI50 (HT-29): 26.9 µM (inactive) | GI50 (Hs-578T): 19.4 µM (inactive) | GI50 (IGROV-1): 27.7 µM (inactive) | GI50 (K562): 22.1 µM (inactive) | GI50 (KM12): 27.3 µM (inactive) | GI50 (LOX IMVI): 18 µM (inactive) | GI50 (M14): 35.4 µM (inactive) | GI50 (MCF7): 33 µM (inactive) | GI50 (MDA-MB-231): 29.9 µM (inactive) | GI50 (MDA-MB-435): 25.4 µM (inactive) | GI50 (MDA-N): 35.2 µM (inactive) | GI50 (MOLT-4): 25.8 µM (inactive) | GI50 (Malme-3M): 16.9 µM (inactive) | GI50 (NCI-H226): 25.3 µM (inactive) | GI50 (NCI-H23): 32.4 µM (inactive) | GI50 (NCI-H460): 20.6 µM (inactive) | GI50 (NCI-H522): 12.4 µM (inactive) | GI50 (OVCAR-3): 22.6 µM (inactive) | GI50 (OVCAR-5): 47.5 µM (inactive) | GI50 (OVCAR-8): 32.1 µM (inactive) | GI50 (PC-3): 27.1 µM (inactive) | GI50 (RPMI-8226): 15.5 µM (inactive) | GI50 (RXF 393): 22.6 µM (inactive) | GI50 (SF-268): 43 µM (inactive) | GI50 (SF-295): 21.7 µM (inactive) | GI50 (SF-539): 20.5 µM (inactive) | GI50 (SK-MEL-28): 40.6 µM (inactive) | GI50 (SK-MEL-2): 29 µM (inactive) | GI50 (SK-MEL-5): 22.1 µM (inactive) | GI50 (SK-OV-3): 40.1 µM (inactive) | GI50 (SN12C): 37.1 µM (inactive) | GI50 (SNB-19): 40.7 µM (inactive) | GI50 (SNB-75): 27.8 µM (inactive) | GI50 (SR): 12.5 µM (inactive) | GI50 (SW-620): 42.3 µM (inactive) | GI50 (T47D): 31.7 µM (inactive) | GI50 (TK-10): 30.3 µM (inactive) | GI50 (U-251): 26.5 µM (inactive) | GI50 (UACC-257): 19.6 µM (inactive) | GI50 (UACC-62): 26.2 µM (inactive) | GI50 (UO-31): 26.7 µM (inactive)
